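96-well plates; 48 h exposure; 5 concentrations. Endpoints by linear interpolation between flanking doses. Not reached: highest tested concentration assigned. The concentration for 50% growth inhibition is given as GI50.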 Activity calls are given as the source filed them. Rule as the data show it: active = GI50 up to about 1.1 µM and inactive = higher.
Assays:
Test in all cases: inhibition of tumour cell growth, NCI panel, 48 h
786-0 = test system: 786-0
A498 = test system: A498
A549 = test system: A549
ACHN = test system: ACHN
BT-549 = test system: BT-549
CAKI-1 = test system: CAKI-1
CCRF-CEM = test system: CCRF-CEM
COLO 205 = test system: COLO 205
DU-145 = test system: DU-145
EKVX = test system: EKVX
HCC 2998 = test system: HCC 2998
HCT-116 = test system: HCT-116
HCT-15 = test system: HCT-15
HOP-62 = test system: HOP-62
HT-29 = test system: HT-29
Hs-578T = test system: Hs-578T
KM12 = test system: KM12
M14 = test system: M14
MCF7 = test system: MCF7
MDA-MB-231 = test system: MDA-MB-231
MDA-MB-435 = test system: MDA-MB-435
MDA-N = test system: MDA-N
MOLT-4 = test system: MOLT-4
Malme-3M = test system: Malme-3M
NCI-H226 = test system: NCI-H226
NCI-H23 = test system: NCI-H23
NCI-H460 = test system: NCI-H460
NCI/ADR-RES = test system: NCI/ADR-RES
OVCAR-3 = test system: OVCAR-3
OVCAR-4 = test system: OVCAR-4
OVCAR-5 = test system: OVCAR-5
OVCAR-8 = test system: OVCAR-8
PC-3 = test system: PC-3
RPMI-8226 = test system: RPMI-8226
SF-268 = test system: SF-268
SF-295 = test system: SF-295
SF-539 = test system: SF-539
SK-MEL-28 = test system: SK-MEL-28
SK-MEL-2 = test system: SK-MEL-2
SK-OV-3 = test system: SK-OV-3
SN12C = test system: SN12C
SNB-19 = test system: SNB-19
SNB-75 = test system: SNB-75
SW-620 = test system: SW-620
T47D = test system: T47D
U-251 = test system: U-251
UACC-257 = test system: UACC-257
UACC-62 = test system: UACC-62
UO-31 = test system: UO-31
HL-60 = test system: HL-60
HOP-92 = test system: HOP-92
IGROV-1 = test system: IGROV-1
K562 = test system: K562
LOX IMVI = test system: LOX IMVI
NCI-H522 = test system: NCI-H522
RXF 393 = test system: RXF 393
SK-MEL-5 = test system: SK-MEL-5
SR = test system: SR
TK-10 = test system: TK-10

O=[N+]([O-])C(/C(Cl)=C(/Cl)N1CCCCC1)=C1\NCCO1
GI50 (786-0): > 100 µM (inactive)
GI50 (A498): > 100 µM (inactive)
GI50 (A549): > 100 µM (inactive)
GI50 (ACHN): > 100 µM (inactive)
GI50 (BT-549): > 100 µM (inactive)
GI50 (CAKI-1): > 100 µM (inactive)
GI50 (CCRF-CEM): > 100 µM (inactive)
GI50 (COLO 205): > 100 µM (inactive)
GI50 (DU-145): > 100 µM (inactive)
GI50 (EKVX): > 100 µM (inactive)
GI50 (HCC 2998): > 100 µM (inactive)
GI50 (HCT-116): > 100 µM (inactive)
GI50 (HCT-15): > 100 µM
GI50 (HOP-62): > 100 µM (inactive)
GI50 (HT-29): > 100 µM (inactive)
GI50 (Hs-578T): > 100 µM (inactive)
GI50 (KM12): > 100 µM (inactive)
GI50 (M14): > 100 µM (inactive)
GI50 (MCF7): > 100 µM (inactive)
GI50 (MDA-MB-231): > 100 µM (inactive)
GI50 (MDA-MB-435): > 100 µM (inactive)
GI50 (MDA-N): > 100 µM (inactive)
GI50 (MOLT-4): > 100 µM (inactive)
GI50 (Malme-3M): > 100 µM (inactive)
GI50 (NCI-H226): > 100 µM (inactive)
GI50 (NCI-H23): > 100 µM (inactive)
GI50 (NCI-H460): > 100 µM (inactive)
GI50 (NCI/ADR-RES): > 100 µM (inactive)
GI50 (OVCAR-3): > 100 µM (inactive)
GI50 (OVCAR-4): > 100 µM (inactive)
GI50 (OVCAR-5): > 100 µM (inactive)
GI50 (OVCAR-8): > 100 µM (inactive)
GI50 (PC-3): > 100 µM (inactive)
GI50 (RPMI-8226): > 100 µM (inactive)
GI50 (SF-268): > 100 µM (inactive)
GI50 (SF-295): > 100 µM (inactive)
GI50 (SF-539): > 100 µM (inactive)
GI50 (SK-MEL-28): > 100 µM (inactive)
GI50 (SK-MEL-2): > 100 µM (inactive)
GI50 (SK-OV-3): > 100 µM (inactive)
GI50 (SN12C): > 100 µM (inactive)
GI50 (SNB-19): > 100 µM (inactive)
GI50 (SNB-75): > 100 µM (inactive)
GI50 (SW-620): > 100 µM (inactive)
GI50 (T47D): > 100 µM (inactive)
GI50 (U-251): > 100 µM (inactive)
GI50 (UACC-257): > 100 µM (inactive)
GI50 (UACC-62): > 100 µM (inactive)
GI50 (UO-31): > 100 µM (inactive)

Cn1c(N(CCO)CCO)cnc1[N+](=O)[O-]
GI50 (786-0): > 100 µM (inactive)
GI50 (A498): > 100 µM (inactive)
GI50 (A549): > 100 µM (inactive)
GI50 (ACHN): > 100 µM (inactive)
GI50 (BT-549): > 100 µM (inactive)
GI50 (CAKI-1): > 100 µM (inactive)
GI50 (CCRF-CEM): > 100 µM (inactive)
GI50 (COLO 205): > 100 µM (inactive)
GI50 (EKVX): > 100 µM (inactive)
GI50 (HCT-116): > 100 µM (inactive)
GI50 (HCT-15): > 100 µM
GI50 (HL-60): > 100 µM (inactive)
GI50 (HOP-62): > 100 µM (inactive)
GI50 (HOP-92): > 100 µM (inactive)
GI50 (HT-29): > 100 µM (inactive)
GI50 (Hs-578T): > 100 µM (inactive)
GI50 (IGROV-1): > 100 µM (inactive)
GI50 (K562): > 100 µM (inactive)
GI50 (KM12): > 100 µM (inactive)
GI50 (LOX IMVI): > 100 µM (inactive)
GI50 (M14): > 100 µM (inactive)
GI50 (MCF7): > 100 µM (inactive)
GI50 (MDA-MB-231): > 100 µM (inactive)
GI50 (MDA-MB-435): > 100 µM (inactive)
GI50 (MDA-N): > 100 µM (inactive)
GI50 (MOLT-4): > 100 µM (inactive)
GI50 (Malme-3M): > 100 µM (inactive)
GI50 (NCI-H226): > 100 µM (inactive)
GI50 (NCI-H23): > 100 µM (inactive)
GI50 (NCI-H460): > 100 µM (inactive)
GI50 (NCI-H522): > 100 µM (inactive)
GI50 (NCI/ADR-RES): > 100 µM (inactive)
GI50 (OVCAR-3): > 100 µM (inactive)
GI50 (OVCAR-4): > 100 µM (inactive)
GI50 (OVCAR-5): > 100 µM (inactive)
GI50 (OVCAR-8): > 100 µM (inactive)
GI50 (PC-3): > 100 µM (inactive)
GI50 (RPMI-8226): > 100 µM (inactive)
GI50 (RXF 393): > 100 µM (inactive)
GI50 (SF-268): > 100 µM (inactive)
GI50 (SF-295): > 100 µM (inactive)
GI50 (SF-539): > 100 µM (inactive)
GI50 (SK-MEL-2): > 100 µM (inactive)
GI50 (SK-MEL-5): > 100 µM (inactive)
GI50 (SK-OV-3): > 100 µM (inactive)
GI50 (SNB-19): > 100 µM (inactive)
GI50 (SNB-75): > 100 µM (inactive)
GI50 (SR): > 100 µM (inactive)
GI50 (SW-620): > 100 µM (inactive)
GI50 (T47D): > 100 µM (inactive)
GI50 (TK-10): > 100 µM (inactive)
GI50 (U-251): > 100 µM (inactive)
GI50 (UACC-257): > 100 µM (inactive)
GI50 (UACC-62): > 100 µM (inactive)
GI50 (UO-31): > 100 µM (inactive)

CC(/C=C/c1ccccc1)=N\NC(N)=S
GI50 (786-0): 34 µM (inactive)
GI50 (A498): 22.2 µM (inactive)
GI50 (A549): 47.5 µM (inactive)
GI50 (ACHN): 38 µM (inactive)
GI50 (BT-549): 29.9 µM (inactive)
GI50 (CAKI-1): 35.7 µM (inactive)
GI50 (CCRF-CEM): 49.7 µM (inactive)
GI50 (COLO 205): 20.5 µM (inactive)
GI50 (DU-145): 34.4 µM (inactive)
GI50 (EKVX): 17.7 µM (inactive)
GI50 (HCC 2998): 21.6 µM (inactive)
GI50 (HCT-116): 35.7 µM (inactive)
GI50 (HCT-15): 27.4 µM
GI50 (HL-60): 15.1 µM (inactive)
GI50 (HOP-62): > 100 µM (inactive)
GI50 (HOP-92): > 100 µM (inactive)
GI50 (HT-29): 56.6 µM (inactive)
GI50 (IGROV-1): 21 µM (inactive)
GI50 (KM12): 28.3 µM (inactive)
GI50 (LOX IMVI): > 100 µM (inactive)
GI50 (M14): 26.5 µM (inactive)
GI50 (MCF7): 33 µM (inactive)
GI50 (MDA-MB-231): 34.6 µM (inactive)
GI50 (MDA-MB-435): 28.1 µM (inactive)
GI50 (MDA-N): 29.6 µM (inactive)
GI50 (MOLT-4): 24.4 µM (inactive)
GI50 (Malme-3M): 45.7 µM (inactive)
GI50 (NCI-H226): 80 µM (inactive)
GI50 (NCI-H23): 74 µM (inactive)
GI50 (NCI-H460): 61.2 µM (inactive)
GI50 (NCI/ADR-RES): 27.9 µM (inactive)
GI50 (OVCAR-3): 24.5 µM (inactive)
GI50 (OVCAR-5): 58.5 µM (inactive)
GI50 (OVCAR-8): 39 µM (inactive)
GI50 (PC-3): 90.8 µM (inactive)
GI50 (RPMI-8226): 33.7 µM (inactive)
GI50 (SF-268): 61.7 µM (inactive)
GI50 (SF-295): 21.5 µM (inactive)
GI50 (SF-539): 31.7 µM (inactive)
GI50 (SK-MEL-28): > 100 µM (inactive)
GI50 (SK-MEL-5): 38.5 µM (inactive)
GI50 (SK-OV-3): 45.4 µM (inactive)
GI50 (SN12C): 42.1 µM (inactive)
GI50 (SNB-19): 24 µM (inactive)
GI50 (SR): 23.2 µM (inactive)
GI50 (SW-620): 50.4 µM (inactive)
GI50 (T47D): 11.8 µM (inactive)
GI50 (TK-10): 39.4 µM (inactive)
GI50 (U-251): 40.5 µM (inactive)
GI50 (UACC-257): 47.9 µM (inactive)
GI50 (UO-31): 32.1 µM (inactive)

Nc1ccc2cc3ccc(N)cc3nc2c1
GI50 (ACHN): 0.826 µM (active)
GI50 (BT-549): 3.72 µM (inactive)
GI50 (CAKI-1): 1.56 µM (inactive)
GI50 (CCRF-CEM): 1 µM (active)
GI50 (COLO 205): 0.771 µM (active)
GI50 (DU-145): 3.33 µM (inactive)
GI50 (EKVX): 1.56 µM (inactive)
GI50 (HCC 2998): 1.25 µM (inactive)
GI50 (HCT-116): 0.482 µM (active)
GI50 (HL-60): 1.56 µM (inactive)
GI50 (HOP-62): 1.62 µM (inactive)
GI50 (HT-29): 0.499 µM (active)
GI50 (Hs-578T): 2.43 µM (inactive)
GI50 (MCF7): 0.757 µM (active)
GI50 (MDA-MB-231): 1.94 µM (inactive)
GI50 (MDA-N): 1.41 µM (inactive)
GI50 (MOLT-4): 0.524 µM (active)
GI50 (NCI-H460): 0.46 µM (active)
GI50 (NCI/ADR-RES): 1.03 µM (active)
GI50 (OVCAR-3): 2.09 µM (inactive)
GI50 (OVCAR-5): 1.63 µM (inactive)
GI50 (OVCAR-8): 0.678 µM (active)
GI50 (SF-268): 1.37 µM (inactive)
GI50 (SF-295): 2.42 µM (inactive)
GI50 (SF-539): 1.02 µM (active)
GI50 (SK-MEL-28): 2 µM (inactive)
GI50 (SK-MEL-5): 1.4 µM (inactive)
GI50 (SN12C): 0.979 µM (active)
GI50 (SNB-75): 1.34 µM (inactive)
GI50 (SR): 0.667 µM (active)
GI50 (SW-620): 0.395 µM (active)
GI50 (T47D): 2.63 µM (inactive)
GI50 (TK-10): 2.69 µM (inactive)
GI50 (UACC-257): 2 µM (inactive)
GI50 (UACC-62): 1.41 µM (inactive)
GI50 (UO-31): 0.993 µM (active)

From ChEMBL document CHEMBL1201862, “PubChem BioAssay data set” (2004)
